Laboratory results as given in the NIST ThermoML archive (doi:10.1021/je0301747).
Numbers after ± are expanded uncertainties.

How the values were obtained:
[1] = Liquid
[2] = molar enthalpy of vaporization or sublimation; details: 298.15 K; Liquid

vapor or sublimation pressure ([1]; 298.15 K) | vapor or sublimation pressure ([1]; 328.15 K) | vapor or sublimation pressure ([1]; 358.15 K) | vapor or sublimation pressure ([1]; 388.15 K) | vapor or sublimation pressure ([1]; 418.15 K) | vapor or sublimation pressure ([1]; 448.15 K) | vapor or sublimation pressure ([1]; 478.15 K) | vapor or sublimation pressure ([1]; 508.15 K) | vapor or sublimation pressure ([1]; 538.15 K) | vapor or sublimation pressure ([1]; 568.15 K) | vapor or sublimation pressure ([1]; 575.15 K) | molar enthalpy [2] | SMILES
6.69e-07 kPa | 3.15e-05 ± 2.3e-05 kPa | 0.0006673 ± 0.00029 kPa | 0.007785 ± 0.0025 kPa | 0.05774 ± 0.015 kPa | 0.3019 ± 0.071 kPa | 1.201 ± 0.27 kPa | 3.849 ± 0.83 kPa | 10.36 ± 2.2 kPa | 24.22 ± 5 kPa | 29.02 ± 6 kPa | 25.5 ± 1.74 kcal/mol | CCCCCCCCCCCCCCCCCCCCC [heneicosane]
3.317e-11 kPa | 8.03e-09 ± 1e-08 kPa | 6.217e-07 ± 3.6e-07 kPa | 2.045e-05 ± 7.1e-06 kPa | 0.0003508 ± 9.2e-05 kPa | 0.003636 ± 0.00084 kPa | 0.02543 ± 0.0055 kPa | 0.1301 ± 0.027 kPa | 0.5185 ± 0.11 kPa | 1.687 ± 0.34 kPa | 2.167 ± 0.44 kPa | 36.4 ± 3.82 kcal/mol | CCCCCCCCCCCCCCCCCCCCCCCCCCCCCC [triacontane]
3.173e-10 kPa | 5.263e-08 ± 5.1e-08 kPa | 3.022e-06 ± 1.4e-06 kPa | 7.829e-05 ± 2.4e-05 kPa | 0.001107 ± 0.00027 kPa | 0.009795 ± 0.0022 kPa | 0.06012 ± 0.013 kPa | 0.276 ± 0.057 kPa | 1.004 ± 0.21 kPa | 3.025 ± 0.62 kPa | 3.823 ± 0.77 kPa | 33.9 ± 3.35 kcal/mol | CCCCCCCCCCCCCCCCCCCCCCCCCCCC [octacosane]
2.148e-07 ± 4e-07 kPa | 1.218e-05 ± 5.5e-06 kPa | 0.0002988 ± 8.8e-05 kPa | 0.003922 ± 0.00095 kPa | 0.032 ± 0.007 kPa | 0.1809 ± 0.038 kPa | 0.7674 ± 0.16 kPa | 2.593 ± 0.53 kPa | 7.298 ± 1.5 kPa | 17.71 ± 3.6 kPa | 21.39 ± 4.3 kPa | 26.7 ± 1.89 kcal/mol | CCCCCCCCCCCCCCCCCCCCCC [docosane]
2.373e-08 kPa | 1.931e-06 ± 1.1e-06 kPa | 6.308e-05 ± 2.1e-05 kPa | 0.001041 ± 0.00027 kPa | 0.01022 ± 0.0023 kPa | 0.06716 ± 0.014 kPa | 0.3225 ± 0.067 kPa | 1.208 ± 0.25 kPa | 3.705 ± 0.75 kPa | 9.668 ± 2 kPa | 11.85 ± 2.4 kPa | 29.1 ± 1.96 kcal/mol | CCCCCCCCCCCCCCCCCCCCCCCC [tetracosane]
1.127e-09 kPa | 1.502e-07 ± 1.2e-07 kPa | 7.253e-06 ± 2.8e-06 kPa | 0.0001636 ± 3.8e-05 kPa | 0.002067 ± 0.00034 kPa | 0.01669 ± 0.0023 kPa | 0.09492 ± 0.012 kPa | 0.4089 ± 0.046 kPa | 1.409 ± 0.15 kPa | 4.056 ± 0.43 kPa | 5.076 ± 0.53 kPa | 32.4 ± 2.29 kcal/mol | CCCCCCCCCCCCCCCCCCCCCCCCCCC [heptacosane]
1.018e-10 kPa | 2.044e-08 ± 2.3e-08 kPa | 1.365e-06 ± 6.8e-07 kPa | 3.99e-05 ± 1.1e-05 kPa | 0.0006219 ± 0.00012 kPa | 0.005963 ± 0.00088 kPa | 0.0391 ± 0.005 kPa | 0.1897 ± 0.022 kPa | 0.7225 ± 0.08 kPa | 2.264 ± 0.24 kPa | 2.884 ± 0.3 kPa | 35.2 ± 3.59 kcal/mol | CCCCCCCCCCCCCCCCCCCCCCCCCCCCC [nonacosane]
7.059e-08 kPa | 4.801e-06 ± 2.5e-06 kPa | 0.0001361 ± 4.3e-05 kPa | 0.002006 ± 0.0005 kPa | 0.01797 ± 0.004 kPa | 0.1096 ± 0.023 kPa | 0.4952 ± 0.1 kPa | 1.763 ± 0.36 kPa | 5.183 ± 1.1 kPa | 13.05 ± 2.6 kPa | 15.88 ± 3.2 kPa | 28 ± 1.96 kcal/mol | CCCCCCCCCCCCCCCCCCCCCCC [tricosane]
2.809e-09 kPa | 3.247e-07 ± 2.4e-07 kPa | 1.401e-05 ± 5.6e-06 kPa | 0.0002888 ± 8.1e-05 kPa | 0.003393 ± 0.0008 kPa | 0.02583 ± 0.0056 kPa | 0.14 ± 0.029 kPa | 0.5797 ± 0.12 kPa | 1.934 ± 0.4 kPa | 5.417 ± 1.1 kPa | 6.742 ± 1.4 kPa | 31.5 ± 2.22 kcal/mol | CCCCCCCCCCCCCCCCCCCCCCCCCC [hexacosane]
8.145e-09 kPa | 7.894e-07 ± 5.2e-07 kPa | 2.963e-05 ± 1.1e-05 kPa | 0.0005462 ± 0.00015 kPa | 0.005863 ± 0.0014 kPa | 0.04146 ± 0.009 kPa | 0.2114 ± 0.044 kPa | 0.8322 ± 0.17 kPa | 2.661 ± 0.54 kPa | 7.192 ± 1.5 kPa | 8.882 ± 1.8 kPa | 30.3 ± 2.03 kcal/mol | CCCCCCCCCCCCCCCCCCCCCCCCC [pentacosane]
